In US9561228B2 (Celgene Avilomics Research, Inc., priority 2013, dated 2017):

How the values were obtained:
Erk1 = target: T1, Erk1 (Homo sapiens, UniProt P27361); test: Protein Mass Modification Assay (intact protein MALDI, 60 min, 10-fold excess of compound); format: binding
T1 construct: purchased Millipore 14-439
Protocol: Protein Mass Modification Assay
Intact protein: Erk1 from Millipore (Cat. No. 14-439) was incubated for 60 min. at room temperature with a 10-fold excess of test compound to protein. 4 μL aliquots of the resulting mixture were diluted with 15 μL of 0.2% TFA prior to micro C4 ZipTipping directly onto the MALDI target using sinapinic acid as the desorption matrix (10 mg/ml in 0.1% TFA:Acetonitrile 50:50, v/v). The centroid mass of the target protein in the control sample was compared with the centroid mass of the target protein incubated with compound. A shift in the centroid mass of the treated protein compared to the untreated protein was divided by the molecular weight of the compound. This number corresponds to the percentage of modified protein after one hour incubation. Results from this assay are reported in Table A under the column “ERK1 Mass Mod (%).”

[1] = test system: A375 cells (malignant melanoma); test: Inhibition of cancer cell proliferation, A375 (CellTiterGlo, 72 hours); format: cell-based; conditions: Homo sapiens, A-375
Protocol: Measurement of Inhibition of Cancer Cell Proliferation (A375/Malignant Melanoma)
(§1) The following protocol used an A375 cell line, which cell line is a model for malignant melanoma. A375 cells were split and 3000 cells in 100 n1 of growth medium were added per well of a flat-bottom 96-well plate. A two-fold test compound solution in serum-free DMEM was made, starting at 5,000 nM. Then, 3-fold serial dilutions were made across the plate from well 1 to well 11. Well 12, the last well in a row on the plate, was left as untreated control. 100 μl compound solutions were then transferred to the wells, so the total volume of media was 200 μl per well. Plates were returned to a 37° C. incubator, and the cells were cultured for 72 hours. To measure cell proliferation after 72 hours, media was discarded from the plates, 50 μl/well of fresh medium was added, and 50 μl CellTiterGlo solution was added (Promega Cat#G7573). The plate was covered with a dark lid and incubated for 10 min. A white sealing tape was applied to the bottom of the plate, and the plate was read in a luminescence plate reader. […] 50 μl CellTiterGlo was added per well, and the plate was read in a luminescence plate reader after 10 min. The reading was plotted vs. cell number to generate a standard curve and the equation of the curve fit. The compound-treated sample luminescence readings were converted to cell numbers using the curve-fit equation. The percent of inhibition, using untreated control as 100% growth, was then calculated. GI50 was then calculated by GraphPad Prism.

[2] = test system: HT-29 cells (colorectal adenocarcinoma); test: Inhibition of cancer cell proliferation, HT-29 (CellTiterGlo, 72 hours); format: cell-based; conditions: Homo sapiens
Procedure, shortened: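 Proliferation over 72 h at 37° C was read by CellTiterGlo luminescence, translated to cell counts with a cell-density standard curve (390–50,000 cells). Compound added as 3-fold dilutions from a 5,000 nM two-fold stock to 3000 seeded HT-29 cells; GI50 from percent inhibition relative to untreated wells.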

[3] = test system: ERK1/2 phosphorylation of p90RSK in HT29 cells; test: pRSK MSD Assay in HT29 cells; format: cell-based; conditions: Homo sapiens, HT-29, read-out: ERK1/ERK2 PRSK MSD HT29 EC50
Procedure, shortened: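 Phospho-RSK level, read by electrochemiluminescence on RSK-antibody-coated MSD plates with a phospho-RSK/Sulfo-tag detection pair, reports cellular ERK1/2 activity. HT29 cells, kept overnight in 0.1% FBS medium, were exposed to compound for 120 min at 37° C before lysis.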

[4] = test system: HCT116 cells (colorectal carcinoma); test: Inhibition of cancer cell proliferation, HCT116 (CellTiterGlo, 72 hours); format: cell-based; conditions: Homo sapiens, HCT-116
Protocol: Measurement of Inhibition of Cancer Cell Proliferation (HCT116/Colorectal Carcinoma)
as §1, with “a HCT116” for “an A375”, “colorectal carcinoma. HCT116” for “malignant melanoma. A375”, “μl” for “n1”, “RPM1640” for “DMEM”

[5] = test system: ERK1/2 phosphorylation of p90RSK in HCT116 cells; test: Detection of total and phospho-RSK by MSD ELISA (HCT116); format: cell-based; conditions: Homo sapiens, HCT-116, read-out: ERK1/ERK2 PRSK HCT116 EC50
Protocol: Detection of Total and Phospho-RSK by MSD ELISA (HCT116)
The protocol below describes an assay to measure the kinase activity of ERK1/2 to phosphorylate a substrate, p90RSK, in the presence or absence of a test compound.
HCT116 cells were grown in RPMI/10% FBS. Prior to the assay, 50,000 cells per well were plated in a 96 well flat bottom plate. Cells were cultured overnight in an incubator at 37° C.
Compound stocks were 10 mM in DMSO. A 1000× dilution was made in DMSO. 1 uL of the DMSO solution was transferred to 1 ml RPMI/10% FBS in a deep well plate. Media in the cell plate was discarded, and 100 uL of the compound-containing media was added. The preparation was incubated at 37° C. for 2 hrs.
Preparation of cell lysates are described below.
pRSK or total RSK MSD Assay
MSD plates: Blank MSD plates were coated with 30 uL capture antibody (BD 610226) at a final concentration of 1 ug/mL in PBS. Both pRSK and total RSK MSD assays used the same capture antibody at the same concentration. Antibody stock concentration was 250 ug/mL. Once antibody solution was added to MSD plate, the sides were tapped to be certain it was coated completely (visual inspection). It was then covered and placed at 4° C. overnight on a level surface.
Block MSD Plate: The coating antibody was removed and the plate was washed on a plate washer in MSD wash buffer. The last bit of wash solution was tapped out and 150 uL/well 3% BSA (MSD Blocker A) in MSD wash buffer was added. The preparation was placed on a shaker at room temperature for at least an hour.
Add samples: Media was removed from compound-treated cells and replaced with 55 uL/well MSD cell lysis buffer containing protease and phosphotase I & II inhibitors. The preparations was incubate on a shaker in a cold room for 30-45 min. The blocked MSD plate was washed on a plate washer, and the last bit of wash solution was tapped out. Next was added 50 uL (of the 55 uL) cell lysate in a well-well transfer. The preparation was covered and incubated on shaker at room temp for 2 hours. The lysate was then removed and washed on plate washer 3 times. The last bit of wash buffer was then tapped out and replaced with 25 uL/well detection antibody (described below).
For pRSK detection, a pRSK antibody stock of 21 ug/mL was prepared as follows: 1 ug/mL pRSK Ser380 antibody (Cell Signaling Technology, Cat. #9335)+1:750 anti-rabbit SulfoTag (from MSD, R32AB-1) in 1% BSA in MSD wash buffer.
For total RSK detection, a total RSK antibody stock of 200 ug/mL was prepared as follows: 1 ug/mL total RSK (Santa Cruz sc-231G) antibody+1:750 anti-goat SulfoTag (from MSD, R32AG-1) in 1% BSA in MSD wash buffer.
The plate was incubated for 1 hr at room temperature on a shaker, followed by three washes. The last bit of wash buffer was tapped out. Next, 150 uL/well 1×MSD Read buffer was added and the plate was analyzed by the MSD reader.

[6] = test system: ERK1/2 phosphorylation of p90RSK in A375 cells; test: Detection of total and phosphor-RSK by MSD ELISA (A375); format: cell-based; conditions: Homo sapiens, A-375, read-out: ERK1/ERK2 PRSK A375 EC50
Procedure, shortened: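 Electrochemiluminescent MSD ELISA: common RSK capture antibody, with pRSK Ser380 or total RSK detection antibodies plus SulfoTag secondaries. Samples were lysates of A375 cells exposed to compound for 2 h at 37° C after overnight culture in 0.1% FBS DMEM.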

T1 sequence (P27361 whole entry): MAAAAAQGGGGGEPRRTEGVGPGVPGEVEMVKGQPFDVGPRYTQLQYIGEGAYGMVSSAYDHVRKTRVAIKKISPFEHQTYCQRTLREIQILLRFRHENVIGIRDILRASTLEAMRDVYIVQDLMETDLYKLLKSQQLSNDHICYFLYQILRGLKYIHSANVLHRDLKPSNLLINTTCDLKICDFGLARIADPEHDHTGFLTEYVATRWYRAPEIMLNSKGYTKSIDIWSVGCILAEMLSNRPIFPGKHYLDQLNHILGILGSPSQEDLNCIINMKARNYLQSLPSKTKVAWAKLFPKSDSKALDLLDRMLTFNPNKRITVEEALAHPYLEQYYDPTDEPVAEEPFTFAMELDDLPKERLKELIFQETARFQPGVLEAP

SMILES	ERK1 Mass Mod (%) (Erk1)	GI50 [1]	GI50 [2]	EC50 [3]	GI50 [4]	EC50 [5]	EC50 [6]
C=CC(=O)Nc1cc(C)ccc1Nc1nc(N[C@H]2CCCN(C(=O)CF)C2)ncc1C(F)(F)F [Compound I-43, (S)—N-(2-((2-((1-(2-Fluoroacetyl)piperidin-3-yl)amino)-5-(trifluoromethyl)pyrimidin-4-yl)amino)-5-methylphenyl)acrylamide]	E (a mass modification of ≧70%)	< 100 nM					
C=CC(=O)Nc1ccccc1Nc1nc(N[C@H]2CCC[C@@H](C(N)=O)C2)ncc1C(F)(F)F [Compound I-118, (1R,3S)-3-((4-((2-acrylamidophenyl)amino)-5-(trifluoromethyl)pyrimidin-2-yl)amino)cyclohexanecarboxamide]	E (a mass modification of ≧70%)	101 to 500 nM	101 to 500 nM	< 100 nM			
C=CC(=O)Nc1ccccc1Nc1nc(N[C@H]2CCC[C@@H](C(N)=O)C2)ncc1Cl [Compound I-120, (1R,3S)-3-((4-((2-acrylamidophenyl)amino)-5-chloropyrimidin-2-yl)amino)cyclohexanecarboxamide]	E (a mass modification of ≧70%)	101 to 500 nM	< 100 nM	< 100 nM			
C=CC(=O)Nc1cc(Cl)ccc1Nc1nc(Nc2cc(OC)ncc2C)ncc1Cl [Compound I-248, N-(5-chloro-2-((5-chloro-2-((2-methoxy-5-methylpyridin-4-yl)amino)pyrimidin-4-yl)amino)phenyl)acrylamide]		501 to 999 nM	501 to 999 nM		> 1000 nM		
C=CC(=O)Nc1cc(C)ccc1Nc1nc(Nc2cc(OC)ncn2)ncc1C(F)(F)F [Compound I-348, N-(2-((2-((6-methoxypyrimidin-4-yl)amino)-5-(trffluoromethyl)pyrimidin-4-yl)amino)-5-methylphenyl)acrylamide]	G (a mass modification ≦30%)			101 to 500 nM		501 to 999 nM	501 to 999 nM
COc1cc(Nc2ncc(C(F)(F)F)c(Nc3ccc(C)cc3N)n2)c(C)cn1 [Compound I-353, N^4-(2-amino-4-methylphenyl)-N^2-(2-methoxy-5-methylpyridin-4-yl)-5-(trifluoromethyl)pyrimidine-2,4-diamine]	G (a mass modification ≦30%)					> 1000 nM	> 1000 nM
C=CC(=O)Nc1cc(C)ccc1Nc1nc(Nc2nc(O)ncc2Cl)ncc1C(F)(F)F [Compound I-363, N-(2-((2-((5-chloro-2-hydroxypyrimidin-4-yl)amino)-5-(trifluoromethyl)pyrimidin-4-yl)amino)-5-methylphenyl)acrylamide]	E (a mass modification of ≧70%)			> 1000 nM		> 1000 nM	> 1000 nM
C=CC(=O)Nc1cc(C)ccc1Nc1nc(Nc2cc(O)ncc2C)ncc1C(F)(F)F [Compound I-365, N-(2-((2-((2-hydroxy-5-methylpyridin-4-yl)amino)-5-(trifluoromethyl)pyrimidin-4-yl)amino)-5-methylphenyl)acrylamide]	E (a mass modification of ≧70%)			> 1000 nM		> 1000 nM	> 1000 nM
C=CC(=O)Nc1cc(C(=O)N2CCN(C(=O)CO)CC2)ccc1Nc1nc(Nc2cc(OC)ncc2C)ncc1C(F)(F)F [Compound I-402, N-(5-(4-(2-hydroxyacetyl)piperazine-1-carbonyl)-2-((2-((2-methoxy-5-methylpyridin-4-yl)amino)-5-(trifluoromethyl)pyrimidin-4-yl)amino)phenyl)acrylamide]	E (a mass modification of ≧70%)			501 to 999 nM		101 to 500 nM	501 to 999 nM
C=CC(=O)Nc1cc(OCC(=O)N2CCN(c3ncccn3)CC2)ccc1Nc1nc(Nc2cc(OC)ncc2C)ncc1C(F)(F)F [Compound I-403, N-(2-((2-((2-methoxy-5-methylpyridin-4-yl)amino)-5-(trifluoromethyl)pyrimidin-4-yl)amino)-5-(2-oxo-2-(4-(pyrimidin-2-yl)piperazin-1-yl)ethoxy)phenyl)acrylamide]	E (a mass modification of ≧70%)			< 100 nM		101 to 500 nM	101 to 500 nM
